These results are taken from patent publication US10385034B2, “Flavonoid IL-17A inhibitors” (THE CLEVELAND CLINIC FOUNDATION, priority 2014, dated 2019).

One assay concerns D4M melanoma cells. The assay is described as follows: Experimental melanoma lung metastasis. The format is in vivo. The settings on record: C57BL/6, 1×10^6 D4M cells tail vein, A18 60 μg/mouse daily, day 20. How it is done:
Melanoma pulmonary metastasis is indicative of poor prognosis. The experimental lung metastasis has been used to test the ability of tumor cell migration, growth at distant sites, effects of drugs for treatment of lung metastasis. In this model, melanoma cells are injected through tail vein, and metastatic lesions can be established in the lung after 2-3 weeks. Here we used this experimental lung metastasis model to test the possible impact of A18 on melanoma re-establishment at distant lung tissue. […] melanoma cells (Jenkins et al., Pigment cell & melanoma research 27, 495-501 (2014)), (1×10^6 cells) were injected into C57BL/6 mouse through tail vein. The control group mice were injected with 200 μl PBS daily, the other group mice were injected with 60 μg A18/mouse daily. The Histological sections were obtained from lung tissue at day 20.

Assay [1] has as its target T1, recombinant human IL-17RA ectodomain (Homo sapiens, UniProt Q96F46).
T1 construct: The recombinant human IL-17RA ectodomain was expressed in baculovirus-infected Sf-9 cells; made in house; host or cells: baculovirus-infected Sf-9 cells
Kind of assay: Fluorescence binding measurement (fluorescence quenching). Conditions: fluorescence-based method, IL-17RA in solution, 1 uM. As for the experimental part: Fluorescence binding measurement. The recombinant human IL-17RA ectodomain was expressed in baculovirus-infected Sf-9 cells and purified as described previously. Liu et al., Nat Commun 4, 1888 (2013). The compound A18 or A0 was obtained from NCI. The purified IL-17RA protein (final concentration at 1 uM) was mixed with various concentrations of compound A0 in the solution consisting of 20 mM Tris, pH 7.5, 150 mM NaCl, and 5% DMSO in a 96-well black flat-bottom microplate (Greiner Bio-One). The reaction mixtures were incubated at room temperature at 120 rpm for 10 min, and fluorescence intensity was measured on a 2300 EnSpire Multimode Plate Reader (PerkinElmer) with excitation (265 nm) and emission (336 nm) wavelengths for A18 or with excitation (240 nm) and emission (337 nm) wavelengths for A0. The fluorescence signal (relative fluorescence intensity) was obtained by subtracting the background fluorescence of buffer and compound A0, and plotted as a function of the concentration of compound A0. The fluorescence quenching was observed as a consequence of the protein-ligand interaction at dose-dependent concentrations of compound A0, and the binding constant of compound A0 to IL-17RA was estimated by one-site total binding fit model (GraphPad Prism).

Assay [2] relates to human mammary epithelial cells (HMEC). Kind of assay: IL-17A-induced CXCL1 (Groα) production, ELISA. The assay is classed as cell-based. The settings on record: IL-17 100 ng/ml, 24 h. An excerpt:
Reagents, cell culture and mice. Purified proteins of human IL-17A, human IL-17E (IL-25), human IL-17RA-Fc (extracellular domain 1-322 AA fused with Fc region of human IgG1 at the C-terminus), human IL-17RB-Fc (extracellular domain 1-289 AA fused with Fc region of human IgG1 at the C-terminus), human horseradish peroxidase (HRP)-conjugated IgG Fc secondary antibody were purchased from Sino Biological Inc. Human and mouse IL-17A and mouse IL-23 used for cell culture and animal injection were purchased from R&D Systems. Human mammary epithelial cells were maintained in Medium 171 plus mammary epithelial growth supplement (MEGS) purchased from Invitrogen, which contain bovine pituitary extract (BPE) (0.4% v/v), recombinant human insulin-like growth factor-I (1 μg/ml), hydrocortisone (0.5 μg/ml) and human epidermal growth factor (3 ng/ml). A549 cells were maintained in RPMI supplemented with 10% FCS and 100 U/ml penicillin and 100 μg/ml streptomycin. All mice were obtained from Jackson laboratory.
ELISA. Groα and IL-17A levels were assayed by ELISA kits (R&D systems) according to the manufacturer's instruction.
A general note: An ELISA detects its analyte on a solid surface through an enzyme-linked reagent.

In assay [3] the test system is IL-17A-induced gene expression in lung tissue. The assay is described as follows: Intranasal injection of IL-17A (lung inflammation). The assay is classed as in vivo. The settings on record: BALB/c mice, A18 4 μg per mouse intranasal with IL-17A 1 μg, 4 h. How it is done: Intranasal injection of IL-17A. Eight-week WT BALB/cJ female mice were subjected to intranasal injection of PBS, 1 μg of IL-17A with or without A18 (4 μg per mouse). […]
(§1) Real-time PCR. Total RNA was extracted from spinal cords and cultured astrocytes with TRIzol (Invitrogen) according to the manufacturer's instructions. All gene expression results are expressed as arbitrary units relative to expression of the gene encoding beta-actin.

Assay [4] relates to IL-17F-induced gene expression. The assay is described as follows: IL-17F-induced gene expression in epithelial cells. The format is cell-based, human. The settings on record: data not shown.
The subject of assay [5] is IL-17A-induced intraperineal neutrophilia. Kind of assay: Peritoneal administration of IL-17A (neutrophilia). The format is in vivo. The settings on record: BALB/c mice, A18 30 μg per mouse i.p. co-injected with IL-17A 1 μg, 6 h. How it is done:
Peritoneal administration of IL-17A. Eight-week WT BALB/cJ female mice were subjected to intraperitoneal injection (i.p.) of PBS, 1 μg of IL-17A with or without A18 (30 μg per mouse). The peritoneal cavity was lavaged with 5 ml ice-cold PBS at 6 h post treatment. Peritoneal cells were counted and quantified by differential cell counting.

The test system of another assay is Th17-mediated EAE. The assay is described as follows: Adoptive transfer of EAE by Th17. The format is in vivo, mouse. As for the experimental part:
Adoptive transfer of EAE by Th17. To prepare MOG-specific polarized Th17 cell populations, drain lymph node cells were prepared from 10-week WT C57BL/6 female mice immunized with MOG 35-55 at day 10 postimmunization. Cells were cultured for 5 days with MOG 35-55 at a concentration of […] under Th17 cell (20 ng/ml IL-23) polarizing condition. For induction of Th17-mediated EAE, 10-week WT C57BL/6J female mice were injected i.p. with 3.0×10^7 polarized MOG 35-55-specific Th17 cells/mouse with or without A18 (30 μg per mouse) 4 h after 500 Rad sublethal irradiation. A18 (30 μg per mouse) was continuously administered i.p. to the treated mice every other day after Th17 injection. At the peak of disease, the mice were sacrificed and perfused with PBS. The spinal cords were fixed in 10% formalin for staining with H&E. The Brains were removed for isolation of infiltrating cells.
Isolation and analysis of inflammatory cells from brain. Brains were homogenized in ice-cold tissue grinders and filtered through a […] cell strainer, and the cells were collected by centrifugation at 400 g for 5 min at 4° C. Cells were resuspended in 10 ml of 30% Percoll (Amersham Bioscience) and centrifuge onto a 70% Percoll cushion in 15 ml tubes at 800 g for 30 min. Cells at the 30%-70% interface were collected and were subjected to flow cytometry. Fluorescence-conjugated CD4, CD8, CD45, Ly6G1 antibodies and isotype controls were purchased from BD Biosciences. F4/80 was obtained from Serotech.
as §1

[6] abbreviates: A18 30 μg per mouse i.p. every other day.

T1 sequence (Q96F46 33-320 limits assumed): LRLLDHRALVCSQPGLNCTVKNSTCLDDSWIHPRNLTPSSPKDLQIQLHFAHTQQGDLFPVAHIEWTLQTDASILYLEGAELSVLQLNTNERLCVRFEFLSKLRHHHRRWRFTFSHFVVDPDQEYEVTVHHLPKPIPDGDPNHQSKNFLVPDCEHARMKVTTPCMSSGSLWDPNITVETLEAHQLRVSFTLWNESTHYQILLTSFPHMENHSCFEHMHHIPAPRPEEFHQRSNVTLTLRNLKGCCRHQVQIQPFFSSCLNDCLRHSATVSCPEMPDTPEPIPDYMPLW

One may read the Kd as the equilibrium constant for the complex coming apart. In the case of `Oc1cc(O)c2cc(O)c(-c3ccc(O)c(O)c3)[o+]c2c1.[Cl-]` [A18, 2-(3,4-Dihydroxyphenyl)-3,5,7-trihydroxy-1-benzopyrylium chloride], the Lung metastasis tumors entry with D4M melanoma cells is “Fewer and smaller”. Moreover, the equilibrium dissociation constant (Kd) in assay [1] was roughly 5 µM. The “IL-17A-mediated CXCL1 production” value in assay [2] is reported as “greatly inhibited”. Further, in assay [3], the “IL-17A-induced gene expression in lung” value is recorded as “greatly inhibited”. The IL-17F-induced gene expression entry in assay [4] is “able to block”. Also, the IL-17A-induced intraperineal neutrophilia entry in assay [5] is “greatly attenuated”. In the assay with Th17-mediated EAE (setting [6]), the EAE disease severity entry is “attenuated”; the “Expression of IL-17-responsive inflammatory genes (CXCL1, IL6, GMCSF, Ccl20) in spinal cords” value was “greatly reduced”; the “Onset of EAE” value was “substantially delayed”. For the same molecule, the “Infiltrated cells in spinal cords” value in the assay on Th17-mediated EAE (H&E staining) is given as “less infiltrated cells”. In the assay on Th17-mediated EAE (brain, flow cytometry), the “Infiltration of CD4+, CD8+ T cells and F4/80+ macrophages” value is “did not affect”; the “Recruitment of Ly6G+ neutrophils” value is reported as “substantially reduced”.
